The record followed here is ChEMBL document CHEMBL1131369, “Isoxazolylthioamides as potential immunosuppressants a combinatorial chemistry approach” (Bioorg Med Chem Lett, 1998).

Structures are written as SMILES.

For one experiment, the target named is Dihydroorotate dehydrogenase (quinone), mitochondrial (Homo sapiens, UniProt Q02127). The experiment can be described thus: Immunosuppressive activity expressed as ability to inhibit human recombinant dihydroorotate dehydrogenase (DHODH).
Sequence of Dihydroorotate dehydrogenase (quinone), mitochondrial (Q02127 whole entry): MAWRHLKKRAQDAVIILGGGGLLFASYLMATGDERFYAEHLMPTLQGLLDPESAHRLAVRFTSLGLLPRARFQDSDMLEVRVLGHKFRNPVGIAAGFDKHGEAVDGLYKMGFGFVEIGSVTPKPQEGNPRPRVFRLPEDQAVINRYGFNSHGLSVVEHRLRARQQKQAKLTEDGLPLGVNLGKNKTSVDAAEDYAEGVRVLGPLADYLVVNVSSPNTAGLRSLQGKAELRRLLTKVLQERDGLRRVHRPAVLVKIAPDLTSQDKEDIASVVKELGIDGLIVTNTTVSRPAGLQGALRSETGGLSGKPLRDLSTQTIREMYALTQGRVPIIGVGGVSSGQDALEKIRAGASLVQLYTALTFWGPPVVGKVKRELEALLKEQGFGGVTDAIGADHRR
Take `FC(F)(F)Oc1ccc(NC(=S)c2cnoc2C2CC2)cc1`: the IC50 came out at 0.8 µM.
As to `CN(C)c1ccc(NC(=S)c2cnoc2C(C)(C)C)cc1`, the IC50 is more than 50 µM.
On the same count and under the same terms, as for `CCCCCCc1oncc1C(=S)Nc1ccc(N(C)C)cc1`, the figure is more than 50 µM; as for `N#Cc1ccc(NC(=S)c2cnoc2C2CCCCC2)cc1`, more than 50 µM.
Same read-out and setting: then `CC(C)(C)c1oncc1C(=S)Nc1ccc(OC(F)(F)F)cc1`, with more than 50 µM; and `CC(C)(C)c1oncc1/C(S)=N/c1ccc(C(F)(F)F)cc1`, with more than 50 µM.
Still for that read-out and setting: then `CCc1oncc1C(=S)Nc1ccc(C#N)cc1`, with 11 µM; and `CN(C)c1ccc(NC(=S)c2cnoc2C2CCCCC2)cc1`, with more than 50 µM; and `CCc1oncc1/C(S)=N/c1ccc(C(F)(F)F)cc1`, with 3 µM.
As to `CCc1oncc1/C(S)=N/c1ccc(N(C)C)cc1`, the IC50 worked out at 40.4 µM.
Still for that read-out and setting: as for `N#Cc1ccc(NC(=S)c2cnoc2C2CC2)cc1`, the figure is 9.3 µM.
As to `CN(C)c1ccc(NC(=S)c2cnoc2C2CC2)cc1`, the IC50 was more than 50 µM.
Same read-out and setting: as for `Cc1oncc1C(=S)Nc1ccc(C#N)cc1`, the figure is 35 µM.
On the same count and under the same terms, as for `FC(F)(F)c1ccc(NC(=S)c2cnoc2C2CC2)cc1`, the figure is 3.2 µM; as for `CCCCCCc1oncc1/C(S)=N/c1ccc(OC(F)(F)F)cc1`, more than 50 µM; as for `Cc1oncc1C(=S)Nc1ccc(C(F)(F)F)cc1`, more than 50 µM.
On the same count and under the same terms, as for `CCCCCCc1oncc1/C(S)=N/c1ccc(C(F)(F)F)cc1`, the figure is more than 50 µM; as for `FC(F)(F)c1ccc(NC(=S)c2cnoc2C2CCCCC2)cc1`, more than 50 µM; as for `CCc1oncc1/C(S)=N/c1ccc(OC(F)(F)F)cc1`, 0.7 µM.
`FC(F)(F)Oc1ccc(NC(=S)c2cnoc2C2CCCCC2)cc1`: the IC50 was more than 50 µM.
`CC(=O)/C(C#N)=C(/S)Nc1ccc(C(F)(F)F)cc1`: the IC50 came to 0.8 µM.
Same read-out and setting: as for `CC(C)(C)c1oncc1/C(S)=N/c1ccc(C#N)cc1`, the figure is more than 50 µM; as for `Cc1oncc1/C(S)=N/c1ccc(OC(F)(F)F)cc1`, 7.2 µM.
Same read-out and setting: as for `CCCCCCc1oncc1C(=S)Nc1ccc(C#N)cc1`, the figure is more than 50 µM.
For `Cc1oncc1C(=S)Nc1ccc(N(C)C)cc1`, the IC50 was more than 50 µM.

The species entered for a further experiment is Mus musculus. The experiment can be described thus: Compound was tested in vitro for immunosuppressive activity which was measured in the mouse mixed lymphocyte reaction. The format is functional.
`C/C(O)=C(/C#N)C(=O)Nc1ccc(C(F)(F)F)cc1` registered an IC50 of 10 µM.
Turning to `Cc1oncc1C(=S)Nc1ccc(C(F)(F)F)cc1`, the IC50 was 23 µM.
Still for that read-out and setting: as for `CC(=O)/C(C#N)=C(/S)Nc1ccc(C(F)(F)F)cc1`, the figure is 11 µM.
